According to patent US12577206B2 (BRISTOL-MYERS SQUIBB COMPANY, priority 2020, dated 2026):

Legend:
[1] = biological target: T1, human FPR2 (Homo sapiens, UniProt P25090); assay: FPR2 cyclic adenosine monophosphate (cAMP) assay; format: cell-based; details: CHO cells overexpressing human FPR2; forskolin 5 μM; inhibition of cAMP production; HTRF; read-out: hFPR2 cAMP2 EC50
T1 sequence (P25090 1-351): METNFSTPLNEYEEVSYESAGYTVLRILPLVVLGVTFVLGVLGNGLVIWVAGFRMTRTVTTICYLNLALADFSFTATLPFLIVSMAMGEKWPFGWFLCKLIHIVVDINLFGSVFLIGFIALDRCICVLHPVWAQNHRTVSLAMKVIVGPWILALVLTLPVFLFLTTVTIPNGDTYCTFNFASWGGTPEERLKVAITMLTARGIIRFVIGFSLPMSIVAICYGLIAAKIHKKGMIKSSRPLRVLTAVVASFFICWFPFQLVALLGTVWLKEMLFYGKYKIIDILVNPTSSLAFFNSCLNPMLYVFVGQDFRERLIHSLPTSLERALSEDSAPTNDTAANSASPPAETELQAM
How it was run: (§1)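 CHO/hFPR1 4,000 cells/well, forskolin 10 μM final; CHO/hFPR2 2,000 cells/well, forskolin 5 μM final. IBMX 200 μM, DMSO 1%, DPBS + Ca/Mg + 0.1% BSA, 30 min rt. HTRF cAMP; 4-PL fit.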

[2] = biological target: T2, human FPR1 (Homo sapiens, UniProt P21462); assay: FPR1 cyclic adenosine monophosphate (cAMP) assay; format: cell-based; details: CHO cells overexpressing human FPR1; forskolin 10 μM; inhibition of cAMP production; HTRF; read-out: hFPR1 cAMP2 EC50
T2 sequence (P21462 1-350): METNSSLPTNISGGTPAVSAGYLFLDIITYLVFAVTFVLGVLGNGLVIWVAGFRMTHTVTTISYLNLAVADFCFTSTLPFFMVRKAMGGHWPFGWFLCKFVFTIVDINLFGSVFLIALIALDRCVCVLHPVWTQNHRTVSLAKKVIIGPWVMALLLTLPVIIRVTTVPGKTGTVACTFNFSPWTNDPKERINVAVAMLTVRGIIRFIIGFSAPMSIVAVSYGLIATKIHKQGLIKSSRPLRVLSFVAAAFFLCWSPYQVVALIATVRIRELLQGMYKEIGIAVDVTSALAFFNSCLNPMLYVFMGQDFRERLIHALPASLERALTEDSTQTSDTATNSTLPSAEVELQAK
How it was run: as §1

| EC50 [1] | EC50 [2] | Compound |
| --- | --- | --- |
| 0.003 µM | 0.003 µM | COc1cc(F)c(-c2c(NC(=O)c3ccc(OC(F)F)cc3)c(=O)n(-c3cccc(OC(F)F)c3)n2C)c(F)c1 [Example 177, N-[5-(2,6-difluoro-4-methoxyphenyl)-2-[3-(difluoromethoxy)phenyl]-1-methyl-3-oxo-2,3-dihydro-1H-pyrazol-4-yl]-4-(difluoromethoxy)benzamide] |
| 0.006 µM | > 10 µM | COc1cc(F)c(-c2c(NC(=O)c3ccc(OC(F)F)cc3)c(=O)n(-c3cccc(F)c3C#N)n2C)c(F)c1 [Example 178, N-[2-(2-cyano-3-fluorophenyl)-5-(2,6-difluoro-4-methoxyphenyl)-1-methyl-3-oxo-2,3-dihydro-1H-pyrazol-4-yl]-4-(difluoromethoxy)benzamide] |
| 0.023 µM | 0.3 µM | COc1cc(F)c(-c2c(NC(=O)c3ccc(OC(F)F)cc3)c(=O)n(-c3cc(C#N)ccc3C#N)n2C)c(F)c1 [Example 179, N-[2-(2,5-dicyanophenyl)-5-(2,6-difluoro-4-methoxyphenyl)-1-methyl-3-oxo-2,3-dihydro-1H-pyrazol-4-yl]-4-(difluoromethoxy)benzamide] |
| 0.008 µM | > 10 µM | COc1cc(F)c(-c2c(NC(=O)c3ccc(OC(F)F)cc3)c(=O)n(-c3nccc(C)c3Cl)n2C)c(F)c1 [Example 180, N-[2-(3-chloro-4-methylpyridin-2-yl)-5-(2,6-difluoro-4-methoxyphenyl)-1-methyl-3-oxo-2,3-dihydro-1H-pyrazol-4-yl]-4-(difluoromethoxy)benzamide] |
| 0.006 µM | 0.14 µM | COc1cc(F)c(-c2c(NC(=O)c3ccc(OC(F)F)cc3)c(=O)n(-c3cccc(OC)c3Cl)n2C)c(F)c1 [Example 181, N-[2-(2-chloro-3-methoxyphenyl)-5-(2,6-difluoro-4-methoxyphenyl)-1-methyl-3-oxo-2,3-dihydro-1H-pyrazol-4-yl]-4-(difluoromethoxy)benzamide] |
| 0.012 µM | > 10 µM | COc1cc(F)c(-c2c(NC(=O)c3ccc(OC(F)F)cc3)c(=O)n(-c3nc(OC)ccc3Cl)n2C)c(F)c1 [Example 182, N-[2-(3-chloro-6-methoxypyridin-2-yl)-5-(2,6-difluoro-4-methoxyphenyl)-1-methyl-3-oxo-2,3-dihydro-1H-pyrazol-4-yl]-4-(difluoromethoxy)benzamide] |
| 0.011 µM | 3.9 µM | COc1cc(F)c(-c2c(NC(=O)c3ccc(OC(F)F)cc3)c(=O)n(-c3cc(OC)ccc3C#N)n2C)c(F)c1 [Example 183, N-[2-(2-cyano-5-methoxyphenyl)-5-(2,6-difluoro-4-methoxyphenyl)-1-methyl-3-oxo-2,3-dihydro-1H-pyrazol-4-yl]-4-(difluoromethoxy)benzamide] |
| 0.008 µM | > 10 µM | COc1cc(F)c(-c2c(NC(=O)c3ccc(OC(F)F)cc3)c(=O)n(-c3cccc(OC)c3C#N)n2C)c(F)c1 [Example 184, N-[2-(2-cyano-3-methoxyphenyl)-5-(2,6-difluoro-4-methoxyphenyl)-1-methyl-3-oxo-2,3-dihydro-1H-pyrazol-4-yl]-4-(difluoromethoxy)benzamide] |
| 0.005 µM | > 10 µM | COc1cc(F)c(-c2c(NC(=O)c3ccc(OC(F)F)cc3)c(=O)n(-c3nc(OC)ccc3C#N)n2C)c(F)c1 [Example 185, N-[2-(3-cyano-6-methoxypyridin-2-yl)-5-(2,6-difluoro-4-methoxyphenyl)-1-methyl-3-oxo-2,3-dihydro-1H-pyrazol-4-yl]-4-(difluoromethoxy)benzamide] |
| 0.01 µM | > 10 µM | COc1cc(F)c(-c2c(NC(=O)c3ccc(OC(F)F)cc3)c(=O)n(-c3cc(F)ccc3Cl)n2C)c(F)c1 [Example 186, N-[2-(2-chloro-5-fluorophenyl)-5-(2,6-difluoro-4-methoxyphenyl)-1-methyl-3-oxo-2,3-dihydro-1H-pyrazol-4-yl]-4-(difluoromethoxy)benzamide] |
| 0.004 µM | 2.2 µM | COc1cc(F)c(-c2c(NC(=O)c3ccc(OC(F)F)cc3)c(=O)n(-c3cccc(Cl)c3F)n2C)c(F)c1 [Example 187, N-[2-(3-chloro-2-fluorophenyl)-5-(2,6-difluoro-4-methoxyphenyl)-1-methyl-3-oxo-2,3-dihydro-1H-pyrazol-4-yl]-4-(difluoromethoxy)benzamide] |
| 0.014 µM | > 10 µM | COc1cc(F)c(-c2c(NC(=O)c3ccc(OC(F)F)cc3)c(=O)n(-c3cc(F)ccc3C#N)n2C)c(F)c1 [Example 188, N-[2-(2-cyano-5-fluorophenyl)-5-(2,6-difluoro-4-methoxyphenyl)-1-methyl-3-oxo-2,3-dihydro-1H-pyrazol-4-yl]-4-(difluoromethoxy)benzamide] |
| 0.005 µM | 0.19 µM | COc1cc(F)c(-c2c(NC(=O)c3ccc(OC(F)F)cc3)c(=O)n(-c3cccc(C#N)c3F)n2C)c(F)c1 [Example 189, N-[2-(3-cyano-2-fluorophenyl)-5-(2,6-difluoro-4-methoxyphenyl)-1-methyl-3-oxo-2,3-dihydro-1H-pyrazol-4-yl]-4-(difluoromethoxy)benzamide] |
| 0.003 µM | > 10 µM | COc1cc(F)c(-c2c(NC(=O)c3ccc(OC(F)F)cc3)c(=O)n(-c3nc(C(C)(C)C)ccc3C#N)n2C)c(F)c1 [Example 190, N-[2-(6-tert-butyl-3-cyanopyridin-2-yl)-5-(2,6-difluoro-4-methoxyphenyl)-1-methyl-3-oxo-2,3-dihydro-1H-pyrazol-4-yl]-4-(difluoromethoxy)benzamide] |
| 0.002 µM | 4.8 µM | COc1cc(F)c(-c2c(NC(=O)c3ccc(OC(F)F)cc3)c(=O)n(-c3nc(C4CCC4)ccc3C#N)n2C)c(F)c1 [Example 191, N-(2-(3-cyano-6-cyclobutylpyridin-2-yl)-5-(2,6-difluoro-4-methoxyphenyl)-1-methyl-3-oxo-2,3-dihydro-1H-pyrazol-4-yl)-4-(difluoromethoxy)benzamide] |
| 0.004 µM | > 10 µM | CCOC1(c2ccc(C#N)c(-n3c(=O)c(NC(=O)c4ccc(OC(F)F)cc4)c(-c4c(F)cc(OC)cc4F)n3C)n2)CC1 [Example 192, N-{2-[3-cyano-6-(1-ethoxycyclopropyl)pyridin-2-yl]-5-(2,6-difluoro-4-methoxyphenyl)-1-methyl-3-oxo-2,3-dihydro-1H-pyrazol-4-yl}-4-(difluoromethoxy)benzamide] |
| 0.005 µM | > 10 µM | COc1cc(F)c(-c2c(NC(=O)c3ccc(OC(F)F)cc3)c(=O)n(-c3nc(C(C)(C)F)ccc3C#N)n2C)c(F)c1 [Example 194, N-{2-[3-cyano-6-(2-fluoropropan-2-yl)pyridin-2-yl]-5-(2,6-difluoro-4-methoxyphenyl)-1-methyl-3-oxo-2,3-dihydro-1H-pyrazol-4-yl}-4-(difluoromethoxy)benzamide] |
| 0.014 µM | > 10 µM | COc1cc(F)c(-c2c(NC(=O)c3ccc(OC(F)F)cc3)c(=O)n(-c3nc(CO)ccc3C(F)(F)F)n2C)c(F)c1 [Example 195, N-[5-(2,6-difluoro-4-methoxyphenyl)-2-[6-(hydroxymethyl)-3-(trifluoromethyl)pyridin-2-yl]-1-methyl-3-oxo-2,3-dihydro-1H-pyrazol-4-yl]-4-(difluoromethoxy)benzamide] |
| 0.009 µM | > 10 µM | COCc1ccc(C(F)(F)F)c(-n2c(=O)c(NC(=O)c3ccc(OC(F)F)cc3)c(-c3c(F)cc(OC)cc3F)n2C)n1 [Example 196, N-[5-(2,6-difluoro-4-methoxyphenyl)-2-[6-(methoxymethyl)-3-(trifluoromethyl)pyridin-2-yl]-1-methyl-3-oxo-2,3-dihydro-1H-pyrazol-4-yl]-4-(difluoromethoxy)benzamide] |
| 0.016 µM | > 10 µM | COc1cc(F)c(-c2c(NC(=O)c3ccc(OC(F)F)cc3)c(=O)n(-c3ncccc3Cl)n2C)c(F)c1 [Example 197, N-[2-(3-chloropyridin-2-yl)-5-(2,6-difluoro-4-methoxyphenyl)-1-methyl-3-oxo-2,3-dihydro-1H-pyrazol-4-yl]-4-(difluoromethoxy)benzamide] |
| 0.013 µM | > 10 µM | COc1cc(F)c(-c2c(NC(=O)c3ccc(OC(F)F)cc3)c(=O)n(-c3cc(OC)ccc3Cl)n2C)c(F)c1 [Example 198, N-[2-(2-chloro-5-methoxyphenyl)-5-(2,6-difluoro-4-methoxyphenyl)-1-methyl-3-oxo-2,3-dihydro-1H-pyrazol-4-yl]-4-(difluoromethoxy)benzamide] |
